Assay results taken from publication PMC4251666 (ACS chemical biology, 2012).

Test system: cytosolic cysteine proteases
Assay: Calpain activity assay in isolated renal cytosol
Assay type: biochemical, New Zealand White rabbits
Conditions: 10 μM, 50 μM SLLVY-AMC

For CCCC[C@@H](C=O)NC(=O)[C@H](CC(C)C)NC(=O)OCc1ccccc1 [Calpeptin], the “inhibition of activity in isolated cytosol” value was ~ 50%.
